Measured values taken from paper PMC10793102 (Acta Pharmaceutica Sinica. B, 2023).
Read-outs that look alike come from different tables or passages of the source.

Key:
[1] = system: p-S345 MLKL; assay: Pharmacodynamic study in SIRS mouse model, p-MLKL immunostaining; type: in vivo; settings: 2 mpk, 8 h after TNFα (20 μg)
[2] = system: FADD−/− Jurkat; assay: Cell viability assay, protection from necroptosis in FADD−/− Jurkat cells; type: cell-based; settings: Homo sapiens, 16 h
[3] = target: hRIPK3 (Homo sapiens, UniProt Q9Y572); assay: In vitro RIPK3 kinase activity assay; type: biochemical
[4] = system: TNFα-induced systemic inflammatory response syndrome; assay: TNFα-induced SIRS mouse model; type: in vivo, C57BL/6J male mice; settings: TNFα 10 μg iv
[5] = system: L929; assay: Cell viability assay, protection from necroptosis in L929 cells; type: cell-based, mouse; settings: Mus musculus, L929, 16 h
[6] = PK study in mice; type: in vivo; settings: male, ICR, mouse, plasma
[7] = system: Ripk1K612R/K612R mice; type: in vivo, mouse; settings: 10 or 20 mpk po QD, 40 days
[8] = system: RIPK1; type: cell-based, human
[9] = system: p-S166 RIPK1; assay: Pharmacodynamic study in SIRS mouse model, p-RIPK1 immunostaining; type: in vivo; settings: 1 mpk, 8 h after TNFα (20 μg)
[10] = target: TEL-TRKA fusion (Homo sapiens, UniProt P04629+P41212); assay: Anti-proliferation in engineered Ba/F3 cells dependent on TEL-TRKA; type: cell-based; settings: read-out: IC50 anti-proliferative effect, TEL-TRKA Ba/F3; 72 h
[11] = system: SARS-CoV-2; type: cell-based; settings: 5 μmol/L, 48 h, human lung organoids
[12] = PK study in rats; type: in vivo; settings: SD, rat, plasma
[13] = system: RA symptoms; assay: RA mouse model induced by collagen antibodies and LPS; type: in vivo, BALB/c male mice; settings: 15 or 30 mpk po daily, 8 days
[14] = system: phosphorylation of RIPK1, RIPK3 and MLKL; assay: Western blotting of necroptotic signaling in L929 cells; type: cell-based, mouse; settings: TNFα (40 ng/mL) and SM164 (25 nmol/L), 15 h, titration
[15] = target: T1, hRIPK1 (Homo sapiens, UniProt Q13546); assay: In vitro RIPK1 kinase activity assay; type: biochemical; settings: Enzymatic IC50s RIPK1, hRIPK1 enzymatic assay
T1 sequence (Q13546 1-671): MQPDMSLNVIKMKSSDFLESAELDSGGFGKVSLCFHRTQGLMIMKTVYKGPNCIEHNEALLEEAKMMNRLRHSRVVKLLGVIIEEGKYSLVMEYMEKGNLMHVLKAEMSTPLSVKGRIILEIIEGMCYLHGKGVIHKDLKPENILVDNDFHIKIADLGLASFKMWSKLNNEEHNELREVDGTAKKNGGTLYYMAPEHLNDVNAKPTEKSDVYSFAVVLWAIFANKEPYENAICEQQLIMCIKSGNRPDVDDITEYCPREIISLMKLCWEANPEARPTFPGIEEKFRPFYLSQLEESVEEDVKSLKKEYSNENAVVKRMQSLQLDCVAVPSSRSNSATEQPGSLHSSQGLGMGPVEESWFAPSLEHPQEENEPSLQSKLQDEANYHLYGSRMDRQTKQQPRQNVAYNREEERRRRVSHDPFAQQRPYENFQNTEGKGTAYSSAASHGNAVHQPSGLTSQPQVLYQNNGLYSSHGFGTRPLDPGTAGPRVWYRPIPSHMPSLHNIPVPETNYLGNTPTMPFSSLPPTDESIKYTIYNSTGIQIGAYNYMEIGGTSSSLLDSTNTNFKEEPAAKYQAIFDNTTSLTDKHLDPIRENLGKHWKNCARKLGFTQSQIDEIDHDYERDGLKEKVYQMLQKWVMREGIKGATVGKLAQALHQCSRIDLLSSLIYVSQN

hRIPK3, sequence (Q9Y572 whole entry): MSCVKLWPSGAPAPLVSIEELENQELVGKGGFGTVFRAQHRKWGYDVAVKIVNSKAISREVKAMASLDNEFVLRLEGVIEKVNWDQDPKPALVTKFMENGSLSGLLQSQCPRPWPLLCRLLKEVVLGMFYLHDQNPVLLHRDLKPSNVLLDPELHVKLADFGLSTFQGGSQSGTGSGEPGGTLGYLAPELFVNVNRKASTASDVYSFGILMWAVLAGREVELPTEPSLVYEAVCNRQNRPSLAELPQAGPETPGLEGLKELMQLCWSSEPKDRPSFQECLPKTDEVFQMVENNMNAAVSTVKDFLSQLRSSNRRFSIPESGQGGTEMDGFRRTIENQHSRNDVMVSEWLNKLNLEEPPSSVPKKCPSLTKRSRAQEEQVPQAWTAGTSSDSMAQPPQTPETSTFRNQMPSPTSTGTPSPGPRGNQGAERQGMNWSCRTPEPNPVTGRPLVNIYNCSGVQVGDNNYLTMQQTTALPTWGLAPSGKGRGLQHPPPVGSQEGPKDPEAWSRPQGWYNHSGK
TEL-TRKA fusion, sequence (P04629 510-781 limits assumed, one chain of several): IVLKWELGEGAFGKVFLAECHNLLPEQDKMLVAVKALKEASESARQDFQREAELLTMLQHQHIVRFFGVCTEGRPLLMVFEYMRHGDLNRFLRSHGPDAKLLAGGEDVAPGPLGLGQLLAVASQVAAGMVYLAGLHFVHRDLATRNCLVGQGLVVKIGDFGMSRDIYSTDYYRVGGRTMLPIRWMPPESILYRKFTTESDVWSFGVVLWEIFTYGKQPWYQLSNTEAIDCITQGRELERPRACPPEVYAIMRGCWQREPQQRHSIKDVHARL

With `C[C@@H](c1ccc(-n2cnc3c(N)ncnc32)cc1)N1CCc2nn(C)c(Cc3ccccc3)c2C1=O` [compound 62, (S)-5-(1-(4-(6-Amino-9H-purin-9-yl)phenyl)ethyl)-3-benzyl-2-methyl-2,5,6,7-tetrahydro-4H-pyrazolo[4,3-c]pyridin-4-one] as the compound, how does the “phosphorylation levels of MLKL in mouse organs” value [1] read?
The value was “significantly suppressed”.

And the EC50 ([2]; read-out: EC50 FADD−/− Jurkat T + S)?
Its EC50 is 0.1 nM.

And the EC50 ([2]; read-out: EC50 FADD−/− Jurkat TNFα)?
The EC50 was 0.02 nM.

What about the IC50 [3] of the same compound?
Its IC50 is 730 nM.

What about the “fold less potent against hRIPK3 than hRIPK1” value ([3]; ratio of enzymatic IC50s) of the same compound?
The value was “at least 200 fold”.

And the “symptoms (hypothermia) in SIRS mice” value ([4]; 1 mpk (po))?
The value was “almost eliminated the symptoms”.

What about the “survival in SIRS mice” value ([4]; 1 mpk (po), n = 7) of the same compound?
Its value is “protected all mice from the fatality”.

And the “acute hypothermia in SIRS mice” value ([4]; 2 mpk (po))?
Its value is “completely mitigated the acute hypothermia”.

And the EC50 ([5]; read-out: EC50 L929 T + S)?
The EC50 was 1.3 nM.

What about the EC50 ([5]; read-out: EC50 L929 TNFα) of the same compound?
Its EC50 is 0.2 nM.

What about the AUC(0-inf) ([6]; iv, 0.5 mg/kg) of the same compound?
The AUC(0-inf) was 476 ng·h/mL.

What about the AUC(0-t) ([6]; iv, 0.5 mg/kg) of the same compound?
The AUC(0-t) was 471 ng·h/mL.

What about the MRT inf ([6]; iv, 0.5 mg/kg) of the same compound?
Its MRT inf is 1.49 h.

And the Vd ([6]; iv, 0.5 mg/kg)?
The Vd was 0.94 L/kg.

And the clearance ([6]; iv, 0.5 mg/kg)?
Its clearance is 10 mL/min/kg.

What about the half-life ([6]; iv, 0.5 mg/kg) of the same compound?
Its half-life is 1.29 h.

What about the AUC(0-inf) ([6]; po, 5 mg/kg) of the same compound?
The AUC(0-inf) was 6520 ng·h/mL.

What about the AUC(0-t) ([6]; po, 5 mg/kg) of the same compound?
The AUC(0-t) was 6500 ng·h/mL.

And the Cmax ([6]; po, 5 mg/kg)?
Its Cmax is 1980 ng/mL.

And the MRT inf ([6]; po, 5 mg/kg)?
Its MRT inf is 2.81 h.

What about the Tmax ([6]; po, 5 mg/kg) of the same compound?
The Tmax was 0.5 h.

And the bioavailability ([6]; po, 5 mg/kg)?
The bioavailability was 82.2%.

What about the half-life ([6]; po, 5 mg/kg) of the same compound?
Its half-life is 3.86 h.

What about the “adverse effects during long-term treatment” value [7] of the same compound?
Its value is “no adverse effects had been observed”.

And the “colorectal stricture, splenomegaly and thymus hyperplasia symptoms in IBD mice” value [7]?
The value was “significantly alleviated”.

What about the “diarrhea and weight loss symptoms in IBD mice” value ([7]; vs control group) of the same compound?
Its value is “significantly reduced diarrhea and weight loss symptoms”.

And the “activation of RIPK1 in SARS-CoV-2 infected human lung organoids” value [8]?
Its value is “completely abolished the activation of RIPK1”.

And the “TNFα-induced activation of RIPK1 in mouse organs” value [9]?
Its value is “almost eliminated TNFα-induced activation of RIPK1 in mouse organs”.

And the IC50 [10]?
The IC50 was 634 nM.

What about the “antiviral effects (SARS-CoV-2 N protein levels)” value [11] of the same compound?
The value was “very strong antiviral effects compared to reported RIPK1i”.

What about the Tmax ([12]; po, 5 mg/kg) of the same compound?
The Tmax was 0.5 h.

What about the bioavailability ([12]; po, 5 mg/kg) of the same compound?
Its bioavailability is 34.1%.

And the half-life ([12]; po, 5 mg/kg)?
Its half-life is 4.19 h.

What about the AUC(0-inf) ([12]; male, iv, 0.5 mg/kg) of the same compound?
Its AUC(0-inf) is 397 ng·h/mL.

And the AUC(0-t) ([12]; male, iv, 0.5 mg/kg)?
The AUC(0-t) was 390 ng·h/mL.

And the MRT inf ([12]; male, iv, 0.5 mg/kg)?
Its MRT inf is 1.03 h.

And the Vd ([12]; male, iv, 0.5 mg/kg)?
Its Vd is 0.77 L/kg.

And the clearance ([12]; male, iv, 0.5 mg/kg)?
The clearance was 13.3 mL/min/kg.

What about the half-life ([12]; male, iv, 0.5 mg/kg) of the same compound?
Its half-life is 0.91 h.

And the AUC(0-inf) ([12]; male, po, 5 mg/kg)?
Its AUC(0-inf) is 2250 ng·h/mL.

What about the AUC(0-t) ([12]; male, po, 5 mg/kg) of the same compound?
Its AUC(0-t) is 2200 ng·h/mL.

And the Cmax ([12]; male, po, 5 mg/kg)?
Its Cmax is 505 ng/mL.

And the MRT inf ([12]; male, po, 5 mg/kg)?
The MRT inf was 6.82 h.

What about the “RA symptoms (paw edema, erythema, joint stiffness)” value [13] of the same compound?
The value was “effectively eliminate most RA symptoms”.

And the “bodyweight in RA mice” value [13]?
Its value is “without affecting the bodyweight”.

And the “phosphorylation cascade (Western blot), L929” value [14]?
The value was “almost completely blocked the phosphorylation cascade at 40 nmol/L”.

What about the IC50 [15] of the same compound?
Its IC50 is 3.5 nM.
